Test systems include UACC-62; SF-295; RPMI-8226; A498; LOX IMVI; OVCAR-3; NCI/ADR-RES; SK-MEL-28; HT-29; NCI-H23; IGROV-1; PC-3; SF-268; HCT-116; Hs-578T; SN12C; NCI-H522; 786-0.
What all share (test): DTP human tumour cell line panel, 48 h

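How tested: cells in 96-well plates exposed to compound for 48 hours at five concentrations. Here, GI50 denotes the concentration required for 50% inhibition of growth.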 Active and inactive are the calls of the source. No stated cut-off is given here; in the data, active = GI50 up to about 1.1 µM and inactive = higher.

For the molecule `Nc1nc(N)c2nc(CNc3ccc(C(=O)O)cc3)[nH]c2n1`, the GI50 in the test on UACC-62, in the test on SF-295, with RPMI-8226, in the test with A498, in the test with LOX IMVI and with OVCAR-3 was > 100 µM (inactive) throughout. In addition, the GI50 with NCI/ADR-RES, with SK-MEL-28, in the test on HT-29, in the test with NCI-H23, in the test with IGROV-1 and in the test with PC-3 was > 100 µM (inactive) in each case. Further, the GI50 with SF-268, with HCT-116, with Hs-578T, in the test on SN12C, with NCI-H522 and with 786-0 was > 100 µM (inactive) each time.

Take `COc1cc(C2C3=C(COC3=O)OC(C)(C)Oc3cc4c(cc32)OCO4)cc(OC)c1OC` (stereo not drawn): the concentration for 50% growth inhibition (GI50) (as a rule, the concentration at which growth is held to half of that of the control) with UACC-62 was 0.35 µM (active); in the test on SF-295 it was 0.222 µM (active); in the test on RPMI-8226, 0.444 µM (active); in the test on A498, 0.281 µM (active); in the test on LOX IMVI it was 0.331 µM (active); in the test on OVCAR-3, 0.447 µM (active). The GI50 in the test on NCI/ADR-RES is 0.299 µM (active); with SK-MEL-28, 0.296 µM (active); with HT-29, 0.258 µM (active); in the test with NCI-H23 it was 0.384 µM (active); in the test on IGROV-1 it was 0.521 µM (active); with PC-3, 0.344 µM (active). For the same molecule, the 50% growth inhibitory concentration (GI50) with SF-268 was 0.405 µM (active); in the test with HCT-116, 0.318 µM (active); in the test with Hs-578T, 0.301 µM (active); in the test with SN12C it was 0.466 µM (active); with NCI-H522, 0.278 µM (active); with 786-0 it was 0.293 µM (active).

Consider `Cc1ccccc1NC(=S)N/N=C1\C(=O)Nc2ccccc21`, for which the GI50 in the test on UACC-62 is > 100 µM (inactive); in the test with SF-295 it was > 100 µM (inactive); in the test on RPMI-8226, > 100 µM (inactive); in the test with A498 it was 86.3 µM (inactive); in the test on LOX IMVI it was > 100 µM (inactive); in the test on OVCAR-3, > 100 µM (inactive). The GI50 in the test on NCI/ADR-RES is > 100 µM (inactive); with SK-MEL-28 it was 15.1 µM (inactive); in the test on HT-29, > 100 µM (inactive); in the test with NCI-H23, > 100 µM (inactive); with IGROV-1, > 100 µM (inactive); with PC-3, > 100 µM (inactive). For the same molecule, the GI50 was 15.1 µM (inactive) in the test on SF-268; > 100 µM (inactive) in the test with HCT-116; > 100 µM (inactive) in the test on Hs-578T; > 100 µM (inactive) with SN12C; > 100 µM (inactive) with NCI-H522; > 100 µM (inactive) with 786-0.

As to `CC1=CC=CC(C)(C)CC1(O[Si](C)(C)C)C(F)(F)F` (stereo not drawn), the GI50 in the test on UACC-62, in the test with SF-295, in the test with RPMI-8226, with A498, in the test on LOX IMVI and with OVCAR-3 was > 100 µM (inactive) each time. For the same molecule, the GI50 is > 100 µM (inactive) in the test with NCI/ADR-RES; > 100 µM (inactive) in the test with SK-MEL-28; 46.8 µM (inactive) in the test on HT-29; > 100 µM (inactive) in the test on NCI-H23; 26.6 µM (inactive) in the test with IGROV-1; > 100 µM (inactive) with PC-3. Besides, the GI50 in the test with SF-268 is > 100 µM (inactive); in the test on HCT-116, > 100 µM (inactive); in the test with Hs-578T, > 100 µM (inactive); with SN12C, > 100 µM (inactive); in the test on NCI-H522, 43.3 µM (inactive); with 786-0 it was > 100 µM (inactive).

Consider `COc1ccc2c(CCNS(=O)(=O)c3ccccc3)c(C(C)=O)[nH]c2c1`, for which the GI50 in the test with UACC-62 was > 58.5 µM (inactive); in the test on SF-295 it was 80.4 µM (inactive); with RPMI-8226, > 100 µM (inactive); in the test with A498 it was > 62.7 µM (inactive); in the test with LOX IMVI, > 68.2 µM (inactive); in the test with OVCAR-3, > 100 µM (inactive). Besides, the GI50 is 63.2 µM (inactive) with NCI/ADR-RES; 63.8 µM (inactive) with SK-MEL-28; > 46.8 µM (inactive) in the test on HT-29; 8.3 µM (inactive) with NCI-H23; 34.4 µM (inactive) in the test with IGROV-1; > 71.9 µM (inactive) in the test with PC-3. Also, the GI50 is 52.1 µM (inactive) with SF-268; 45.3 µM (inactive) in the test on HCT-116; 46 µM (inactive) with Hs-578T; 38.5 µM (inactive) with SN12C; 20.5 µM (inactive) in the test with NCI-H522; 49.5 µM (inactive) in the test with 786-0.

With `CCCCCC(/C=N/Nc1ccccc1)C(O)(C(F)(F)F)C(F)(F)F` (stereo not drawn), the GI50 in the test with UACC-62, in the test on SF-295, with RPMI-8226, in the test on A498, in the test on LOX IMVI and in the test with OVCAR-3 was > 100 µM (inactive) throughout. In addition, the GI50 in the test with NCI/ADR-RES, in the test on SK-MEL-28, in the test on HT-29, with NCI-H23, in the test with IGROV-1 and in the test on PC-3 was > 100 µM (inactive) in each case. The GI50 in the test with SF-268, in the test on HCT-116, with Hs-578T, in the test with SN12C, in the test on NCI-H522 and in the test on 786-0 was > 100 µM (inactive) throughout.

On to `O=C1c2[nH]c3ccccc3c2CCN2CCCCC12` (stereo not drawn), for which the GI50 was 18.8 µM (inactive) with UACC-62; 25.1 µM (inactive) with SF-295; 17.7 µM (inactive) in the test on RPMI-8226; 29.6 µM (inactive) in the test with A498; 22.3 µM (inactive) in the test on LOX IMVI; 19.7 µM (inactive) with OVCAR-3. The GI50 in the test with NCI/ADR-RES was 22.8 µM (inactive); with SK-MEL-28 it was 37.4 µM (inactive); in the test on HT-29, 34.1 µM (inactive); in the test on NCI-H23, 21.8 µM (inactive); in the test with IGROV-1 it was 20.2 µM (inactive); with PC-3 it was 18.8 µM (inactive). Moreover, the GI50 is 33.8 µM (inactive) in the test on SF-268; 23.6 µM (inactive) in the test with HCT-116; 28 µM (inactive) with Hs-578T; 35.6 µM (inactive) in the test with SN12C; 20.3 µM (inactive) with NCI-H522; 24 µM (inactive) in the test on 786-0.

`CCOC(=O)c1c(Br)c(-c2ccc([N+](=O)[O-])cc2)c(Br)n1C`: the GI50 was 7.28 µM (inactive) in the test with UACC-62; > 10 µM (inactive) with SF-295; > 10 µM (inactive) in the test on RPMI-8226; > 10 µM (inactive) with A498; > 10 µM (inactive) in the test with LOX IMVI; > 10 µM (inactive) in the test on OVCAR-3. Besides, the GI50 in the test with NCI/ADR-RES, in the test on SK-MEL-28, with HT-29, in the test with NCI-H23, in the test on IGROV-1 and with PC-3 was > 10 µM (inactive) throughout. Moreover, the GI50 was > 10 µM (inactive) with SF-268; > 10 µM (inactive) in the test with HCT-116; 5.06 µM (inactive) in the test with Hs-578T; 9.06 µM (inactive) in the test with SN12C; > 10 µM (inactive) in the test with NCI-H522; > 10 µM (inactive) in the test on 786-0.

For the molecule `CC(=O)N1CC(C)(C)c2c(C)c(O)c(C)c(C)c21`, the GI50 with UACC-62, with SF-295, with RPMI-8226, in the test on A498, in the test on LOX IMVI and in the test on OVCAR-3 was > 100 µM (inactive) each time. Besides, the GI50 in the test with NCI/ADR-RES, in the test with SK-MEL-28, in the test on HT-29, with NCI-H23, with IGROV-1 and in the test with PC-3 was > 100 µM (inactive) throughout. Moreover, the GI50 in the test on SF-268, with HCT-116, in the test on Hs-578T, in the test on SN12C, in the test with NCI-H522 and with 786-0 was > 100 µM (inactive) in each case.

For `C=CCOc1ccc(C2c3c(n[nH]c3O)CC(O)(OCC)C2C(=O)OCC)cc1OC` (stereo not drawn), the 50% growth inhibitory concentration (GI50) with UACC-62 was 0.1 µM (active); with SF-295, > 100 µM (inactive); in the test on RPMI-8226 it was > 100 µM (inactive); with A498 it was > 100 µM (inactive); in the test with LOX IMVI it was > 100 µM (inactive); with OVCAR-3, > 100 µM (inactive). In addition, the GI50 in the test with NCI/ADR-RES, in the test on SK-MEL-28, in the test on HT-29, in the test on NCI-H23, with IGROV-1 and in the test on PC-3 was > 100 µM (inactive) throughout. For the same molecule, the GI50 in the test with SF-268, in the test on HCT-116, in the test on Hs-578T, in the test with SN12C, in the test with NCI-H522 and in the test with 786-0 was > 100 µM (inactive) each time.

Consider `CCOC(=O)/C=C\C(C#N)(C#N)/N=C/c1ccsc1`, for which the GI50 in the test on UACC-62 is 17 µM (inactive); in the test on SF-295, 29.3 µM (inactive); in the test on RPMI-8226 it was 1.33 µM (inactive); with A498 it was 19 µM (inactive); in the test on LOX IMVI it was 4.06 µM (inactive); with OVCAR-3, 2.54 µM (inactive). For the same molecule, the GI50 is 3.84 µM (inactive) with NCI/ADR-RES; 2.38 µM (inactive) in the test on SK-MEL-28; 11.1 µM (inactive) in the test with HT-29; 9.68 µM (inactive) in the test with NCI-H23; 14.5 µM (inactive) in the test on IGROV-1; 8.99 µM (inactive) in the test with PC-3. In addition, the GI50 with SF-268 is 6.75 µM (inactive); in the test on HCT-116, 2.17 µM (inactive); in the test with Hs-578T, 19.5 µM (inactive); with SN12C, 18.2 µM (inactive); in the test on NCI-H522, 0.9 µM (active); in the test with 786-0, 2.24 µM (inactive).

Source of the values: ChEMBL document CHEMBL1201862, “PubChem BioAssay data set” (2004).
